Several values for one entry are separate records, joined by “and”; a condition that tells them apart may be missing. Equal values may be shown once.
Legend:
[1] = Blood chemistry following Compound 38 IP administration; assay type: in vivo; details: Compound 38 1 mg/kg IP, individual mice #4-#6
Description: The growth of A375 tumors in immunodeficient mice subjected to either BRAFi alone or BRAFi combined with Compound 38 was monitored in vivo. Compound 38 toxicity in mice was monitored by liver function (Table 5).

A375 tumors = assay: A375 xenograft in nude mice; assay type: in vivo
Protocol: All animal studies were conducted in the SBMRI Animal Facility in accordance with the Institutional Animal Care and Use Committee guidelines. Six-week-old female nu/nu mice were purchased Harlan Laboratories (Indianapolis, Ind.) and allowed to acclimatize for 1 week. A375 cells (1×10^6, suspended in 200 μL sterile PBS) were injected into subcutaneous flank tissue. When the xenograft size reached ˜250 mm^3, mice were sorted into different groups. For PLX4720 and Compound 38 combination experiments, mice were either fed PLX4720-containing chow alone (AIN76A Roden Diet with 417 mg PLX4720/kg from Open Source Diets) for the control group or PLX4 720-containing chow plus an IP injection of 1 mg/kg Compound 38 twice a week. For MEKi plus Compound 38 experiments, PD0325901 at 20 mg/kg (formulated in 0.5% hydroxypropyl methylcellulose plus 0.2% Tween-80) was administered by oral gavage twice a week (Monday and Thursday) for the control group, or PD035901 plus IP injection of 1 mg/kg Compound 38 was administered twice a week (Tuesday and Friday). Mice were maintained in a pathogen-free environment with free access to food. Body weight and tumor volume were measured twice a week. Tumor size was measured with linear calipers and calculated using the formula: ([length in millimeters×(width in millimeters)2]/2). Mice were sacrificed after 4 weeks and tumors were fixed in Z-Fix (Anatech, Battle Creek, Mich.) and embedded in paraffin for immunohistochemistry.
A375 human melanomacells were injected subcutaneously (1×10^6) into the flank of nude mice and allowed to form established tumors. Once tumors reached approximately 250 mm3, mice were randomly grouped and subjected to the indicated treatments [chow containing PLX4720 (417 mg/kg) and/or Compound 38 (1 mg/kg, 2 times per week intraperitoneally)]. Tumor size was measured at the indicated time points. The experiment was repeated twice. […] When tumors were allowed to reach 500 mm^3 before initiating treatment, 5 of 7 […] mice subjected to BRAFi treatment alone relapsed as drug-resistant tumors (4/5 within 4-6 weeks), whereas only 3 of 6 (50%) subjected to combination treatment developed resistance, albeit more slowly (2/3 after 8 weeks; FIG. 22). […] Proteins prepared at the indicated times from A375 tumors that were subjected in vivo to treatment with Compound 38 were incubated with m^7GTP-beads to capture the eIF4F complex. Shown is time-dependent inhibition of eIF4G1 binding to eIF4E in vivo, concomitant with increased binding of inhibitory 4E-BP1 to eIF4E.

[2] = target: HCV cap-independent translation; assay: In vitro translation assay, FF-HCV-Ren construct, cap-independent (Ren luciferase); assay type: biochemical, rabbit reticulocyte lysates
In short: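 Rabbit reticulocyte lysate with -Met/-Leu translation mixes (1:1) was pre-incubated with compounds 1 h at room temperature, then programmed with 0.1 μg bicistronic RNA per well and translated 2 h at 30° C. FF luciferase (cap-dependent) and then Ren luciferase (IRES-driven) were read by Dual-Glo luminescence.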

[3] = tested on: UACC903 and WM1346 cell lines; assay: Reverse phase protein array analysis (RPPA), average of both cell lines; assay type: cell-based, human
Protocol: UACC903 and WM1346 cells were treated with DMSO (controls) or 1 μM Compound 38 for 24 h in triplicate. Cells were lysed with lysis buffer (1% Triton X-100, 50 mM HEPES, pH 7.4, 150 mM NaCl, 1.5 mM MgCl2, 1 mM EGTA, 100 mM NaF, 10 mM Na pyrophosphate, 1 mM Na3VO4, 10% glycerol, with freshly added protease and phosphatase inhibitors) and centrifuged at 13,000 g for 20 minutes. Denatured protein lysates containing the same amount of protein were then subjected to RPPA analysis at the RPPA Core Facility, Md. Anderson Cancer Center, as previously described (Tibes. R., et al. Reverse phase protein array: validation of a novel proteomic technology and utility for analysis of primary leukemia specimens and hematopoietic stem cells. Molecular cancer therapeutics 5, 2512-2521 (2006)),
A reverse phase protein array (RPPA) analysis of BRAF- and NRAS-mutant melanomas was performed to identify protein networks affected by Compound 38 (Table 4).

## O=C(/C=C/c1cncc(F)c1)c1c(-c2ccccc2)c2cc(Cl)ccc2[nH]c1=O [Compound 38, 6-Chloro-3-[3-(5-fluoro-pyridin-3-yl)-acryloyl]-4-phenyl-1H-quinolin-2-one]
[1]
  CRE (Kidney): <18 µmol/L
[1]; 1 mg/kg
  ALB (Liver): 32 g/L (2×) and 34 g/L
  ALP (Liver): 88 μ/L and 54 μ/L and 24 μ/L
  ALT (Liver): 126 μ/L and >1000 μ/L and 152 μ/L
  AMY (Pancreas): 701 μ/L and 811 μ/L and 1625 μ/L
  BUN (Kidney): 7.5 mmol/L and 9.9 mmol/L and 7.9 mmol/L
  CA (Electrolytes): 2.25 mmol/L and 2.1 mmol/L and 2.14 mmol/L
  GLOB (Liver): 10 g/L and 11 g/L (2×)
  GLU (General metabolism): 17.6 mmol/L and 13.8 mmol/L and 16.5 mmol/L
  K^+ (Electrolytes): 5.5 mmol/L and 8 mmol/L and 6.5 mmol/L
  Na^+ (Electrolytes): 137 mmol/L (2×) and 146 mmol/L
  PHOS (Electrolytes): 2.4 mmol/L and 2.27 mmol/L and 1.64 mmol/L
  TBIL (Liver): 5 μmol/L and 4 μmol/L (2×)
  TP (Liver): 42 g/L and 44 g/L and 43 g/L
A375 tumors; A375 tumors, treatment with both BRAFi and Compound 38, up to 8 hours
  effect on the eIF4F complex in vivo (m7GTP-beads): time-dependent disruption of the eIF4F complex
A375 tumors; PLX4720 chow plus Compound 38 1 mg/kg, 2 times per week intraperitoneally
  Growth of established tumors (~250 mm^3), combination of BRAFi plus Compound 38: largely inhibited
A375 tumors; treatment started at ~250 mm^3, PLX4720 chow plus Compound 38 1 mg/kg IP
  Tumors seen in mice treated with the drug combination: 0/4
[2]
  IC50: 2 to 10 µM
[3]
  Ratio [Compound 38/DMSO] A-Raf, Average: 0.9
  Ratio [Compound 38/DMSO] AR, Average: 0.82
  Ratio [Compound 38/DMSO] ATM, Average: 0.81
  Ratio [Compound 38/DMSO] ATR, Average: 0.80
  Ratio [Compound 38/DMSO] BRCA2, Average: 0.93
  Ratio [Compound 38/DMSO] C-Raf, Average: 0.92
  Ratio [Compound 38/DMSO] Chk1, Average: 0.91
  Ratio [Compound 38/DMSO] Ets-1, Average: 0.92
  Ratio [Compound 38/DMSO] GCN5L2, Average: 0.87
  Ratio [Compound 38/DMSO] INPP4b, Average: 0.9
  Ratio [Compound 38/DMSO] MSH6, Average: 0.77
  Ratio [Compound 38/DMSO] PI3K-p85, Average: 0.95
  Ratio [Compound 38/DMSO] PI3K-p110-alpha, Average: 0.95
  Ratio [Compound 38/DMSO] Rad51, Average: 0.85
  Ratio [Compound 38/DMSO] Raptor, Average: 0.86
  Ratio [Compound 38/DMSO] Rictor_pT1135, Average: 0.87
  Ratio [Compound 38/DMSO] S6_pS235_S236, Average: 0.67
  Ratio [Compound 38/DMSO] S6_pS240_S244, Average: 0.63
  Ratio [Compound 38/DMSO] Stat5a, Average: 0.76
  Ratio [Compound 38/DMSO] Tuberin, Average: 0.65
  Ratio [Compound 38/DMSO] YB1, Average: 0.73
  Ratio [Compound 38/DMSO] c-Kit, Average: 0.90
  Ratio [Compound 38/DMSO] c-Myc, Average: 0.76
  Ratio [Compound 38/DMSO] mTOR, Average: 0.80
  Ratio [Compound 38/DMSO] mTOR_pS2448, Average: 0.74
  Ratio [Compound 38/DMSO] p70-S6K_pT389, Average: 0.81

From patent publication US10577349B2 (Sanford Burnham Prebys Medical Discovery Institute, priority 2015, dated 2020)
